Reference: patent US8338599B2, “Compounds having a potentiating effect on the activity of ethionamide and uses thereof” (priority 2006, dated 2012)
Values after ≈ are worked out from the molar mass of the structure shown. Like-named read-outs stand apart in the source and are kept apart here.

Key:
M. bovis BCG = assay type: cell-based, M. bovis BCG 1173P2; settings: from MIC of ETH alone (6 μM) and MIC of ETH with 25 μM compound
EthR protein [1] = target: T1, EthR protein (Mycobacterium tuberculosis, UniProt P9WMC1); assay: Inhibition of interaction of EthR with its target DNA sequence (BIAcore); assay type: binding, M. tuberculosis H37Rv; settings: compound 3 μM, EthR 540 nM, 37° C.
Procedure: a) Measurement of the Activity of the Compounds on the Inhibition of Interaction of EthR with its Target DNA Sequence
The in vitro measurements of inhibition of binding of the EthR protein to its target DNA sequence were performed on a machine of BIAcore®2000 type (AB, Uppsala, Sweden).
The chips used are CM5 chips sold by the company GE Healthcare. Both the channels of a chip were activated with a solution containing 200 mM of EDC(N-ethyl-N′-(3-[…])carbodiimide) and 50 mM of NHS (N-hydroxysuccinimide). Next, streptavidin (500 ng/μl in a solution containing 10 mM of sodium acetate (pH 3.5) was injected over 12 minutes at a flow rate of 10 μl/minute. The 106-base-pair biotinylated DNA fragment corresponding to the ethA-R intergene region was deposited on one of the two channels of the chip at a rate of 200 ng/ml in order to obtain stable binding of streptavidin corresponding to 50 RU (resonance units). This DNA fragment was obtained by PCR using the chromosomal DNA of M. tuberculosis H37Rv as matrix and O-270: 5′-[…]-3′ (SEQ ID: No. 1) and O-271: 5′-biotin-[…]-3′ (SEQ ID: No. 2). The second channel was functionalized with a 113-base-pair biotinylated DNA fragment (fragment +14 to +127 of the bla gene of E. coli PCR-amplified using the following oligonucleotides: O-343: 5′-[…]-3′ (SEQ ID: No. 3) and O-344: 5′-biotin-[…]-3′ (SEQ ID: No. 4).
Measurement of the binding of the EthR protein to the immobilized DNA was performed at 37° C. in a reference buffer containing 10 mM of Tris-HCl (pH=7.5), 200 mM of NaCl, 0.1 mM of EDTA, 1 mM of DTT and 1% of DMSO at a flow rate of 20 μl/minute. The specific interaction (SI) of EthR with the 106-base-pair double-stranded DNA sequence, expressed in resonance units, corresponds to the difference in signal observed between the two channels.
For each inhibition measurement, the compounds of the invention are dissolved in the reference buffer at a concentration of 3 μM. The compounds of the invention are then incubated in the presence of the protein (540 nM) at 37° C. for 5 minutes, and each solution is then injected onto the two channels of the chip for 3 minutes at a flow rate of 20 μl/minute. The inhibition values are calculated at the end of the injection according to the following equation: […]
in which SIEthR corresponds to the value measured without ligand and SIEthR+ligand corresponds to the value measured in the presence of to ligand.

[2] = Measurement of the solubility (PBS pH 7.4 vs methanol, LC/MS); assay type: physicochemical; settings: pH 7.4, aqueous buffer, kinetic from dmso stock
Procedure: e) Measurement of the Solubility of the Compounds of the Invention
40 μl of a solution containing a compound of the invention at a concentration of 10 mM in DMSO were diluted in 1.960 ml of methanol, and another 40 μl were diluted in 1.960 ml of a PBS solution containing 675 mM of NaCl, 13.5 mM of KCl, 50 mM of Na2HPO4.2H2O and 10 mM of KH2PO4 at a pH of 7.4. The two solutions were stirred for 24 hours at room temperature, and then centrifuged for 5 minutes and filtered through 0.45 μm filters. 20 μl of each solution were then diluted in 118 μl of methanol and analyzed by liquid chromatography coupled to mass spectrometry (LC/MS). The solubility was determined by the ratio of the areas under the curve of the mass signal for the compound of the invention, according to the following equation: […]

EthR protein [3] = target: T1, EthR protein; assay: In vitro measurement of the IC50 (EthR/DNA binding, BIAcore); design: species or system M. tuberculosis H37Rv
Procedure: b) In Vitro Measurement of the IC50 of the Compounds of the Invention.
The in vitro measurement of this datum was performed according to the same principle as for the measurement of inhibition of the EthR/DNA binding using the BIAcore technique.
The specific interaction between EthR and the specific 106-bp DNA fragment was measured on a range of six concentrations of the compounds of the invention, this range extending from 0.11 μM to 27 μM. The IC50 values are then extrapolated from the sigmoid curves obtained.

[4] = six concentrations from 0.11 μM to 27 μM, read-out: IC50

T1 sequence (P9WMC1 whole entry, looked up): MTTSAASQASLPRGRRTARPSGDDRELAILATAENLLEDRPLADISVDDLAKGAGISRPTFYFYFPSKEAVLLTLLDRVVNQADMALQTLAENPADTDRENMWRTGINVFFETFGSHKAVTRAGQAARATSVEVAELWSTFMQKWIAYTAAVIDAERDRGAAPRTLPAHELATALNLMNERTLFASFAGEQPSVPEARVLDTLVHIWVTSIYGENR

| SMILES | Potentiation % (M. bovis BCG) | inhibition at 3 µM (EthR protein [1]) | solubility at 24 h [2] | IC50 (EthR protein [3]; [4]) | IC50 (EthR protein [3]) |
| --- | --- | --- | --- | --- | --- |
| [N-]=[N+]=NCC(=O)N1CCC(c2nc(-c3ccsc3)no2)CC1 [Compound 3, 2-azido-1-[4-(3-thiophen-3-yl[1,2,4]oxadiazol-5-yl)piperid-1-yl]ethanone] | 500% | 14% | – | – | – |
| [N-]=[N+]=NCC(=O)N1CCC(c2nc(-c3ccccc3)no2)CC1 [Compound 4, 2-azido-1-[4-(3-phenyl[1,2,4]oxadiazol-5-yl)piperid-1-yl]ethanone] | 500% | 15% | – | – | – |
| [N-]=[N+]=NCC(=O)N1CCC(c2nc(-c3ccc(F)cc3)no2)CC1 [Compound 5, 2-azido-1-{4-[3-(4-fluorophenyl)[1,2,4]oxadiazol-5-yl]piperid-1-yl}ethanone] | – | 15% | 9 µg/mL (≈ 27.2 µM) | – | – |
| [N-]=[N+]=NCC(=O)N1CCC(c2nc(-c3ccc4c(c3)OCO4)no2)CC1 [Compound 12, 2-azido-1-[4-(3-benzo[1,3]dioxol-5-yl[1,2,4]oxadiazol-5-yl)piperid-1-yl]ethanone] | – | 19% | 71 µg/mL (≈ 199 µM) | – | – |
| COc1ccc2nc(-c3noc(C4CCN(C(=O)CN=[N+]=[N-])CC4)n3)sc2c1 [Compound 15] | – | 94% | – | 1560 nM | – |
| CC(=O)N1CCC(c2nc(-c3cccs3)no2)CC1 [Compound 17, 1-[4-(3-thiophen-2-yl[1,2,4]oxadiazol-5-yl)piperid-1-yl]ethanone] | – | – | 55.5 µg/mL (≈ 200 µM) | – | – |
| C#CCCC(=O)N1CCC(c2nc(-c3cccs3)no2)CC1 [Compound 21, 1-[4-(3-thiophen-2-yl[1,2,4]oxadiazol-5-yl)piperid-1-yl]pent-4-yn-1-one] | 500% | 20% | – | – | – |
| CC(C)CCC(=O)N1CCC(c2nc(-c3cccs3)no2)CC1 [Compound 25, 4-methyl-1-[4-(3-thiophen-2-yl[1,2,4]oxadiazol-5-yl)piperid-1-yl]pentan-1-one] | 500% | 70% | – | 910 nM | – |
| O=C(CCC(F)(F)F)N1CCC(c2nc(-c3cccs3)no2)CC1 [Compound 27, 4,4,4-trifluoro-1-[4-(3-thiophen-2-yl[1,2,4]oxadiazol-5-yl)piperid-1-yl]butan-1-one] | 500% | 96% | – | 1570 nM | – |
| COCC(=O)N1CCC(c2nc(-c3cccs3)no2)CC1 [Compound 28, 2-methoxy-1-[4-(3-thiophen-2-yl[1,2,4]oxadiazol-5-yl)piperid-1-yl]ethanone] | – | – | 61.5 µg/mL (≈ 200 µM) | – | – |
| O=C(O)CCC(=O)N1CCC(c2nc(-c3cccs3)no2)CC1 [Compound 31, 4-oxo-4-[4-(3-thiophen-2-yl[1,2,4]oxadiazol-5-yl)piperid-1-yl]butyric acid] | – | – | 67.1 µg/mL (≈ 200 µM) | – | – |
| O=C(CCC1CCCC1)N1CCC(c2nc(-c3cccs3)no2)CC1 [Compound 34, 3-cyclopentyl-1-[4-(3-thiophen-2-yl[1,2,4]oxadiazol-5-yl)piperid-1-yl]propan-1-one] | – | 48% | – | – | – |
| O=C(CC1CCCC1)N1CCC(c2nc(-c3cccs3)no2)CC1 [Compound 35, 2-cyclopentyl-1-[4-(3-thiophen-2-yl[1,2,4]oxadiazol-5-yl)piperid-1-yl]ethanone] | 2500% | 52% | – | 1490 nM | – |
| O=C(CC1C=CCC1)N1CCC(c2nc(-c3cccs3)no2)CC1 (centres unmarked) [Compound 36, 2-cyclopent-2-enyl-1-[4-(3-thiophen-2-yl[1,2,4]oxadiazol-5-yl)piperid-1-yl]-ethanone] | 500% | 78% | – | 1000 nM | – |
| O=C(CC1CCCCC1)N1CCC(c2nc(-c3cccs3)no2)CC1 [Compound 37, 2-cyclohexyl-1-[4-(3-thiophen-2-yl[1,2,4]oxadiazol-5-yl)piperid-1-yl]ethanone] | – | 76% | – | 3490 nM | – |
| O=C(CC1CC2CCC1C2)N1CCC(c2nc(-c3cccs3)no2)CC1 (centres unmarked) [Compound 40, 2-bicyclo[2.2.1]hept-2-yl-1-[4-(3-thiophen-2-yl[1,2,4]oxadiazol-5-yl)piperid-1-yl]ethanone] | – | 59% | – | – | – |
| O=C(Cc1ccccc1)N1CCC(c2nc(-c3cccs3)no2)CC1 [Compound 41, 2-phenyl-1-[4-(3-thiophen-2-yl[1,2,4]oxadiazol-5-yl)piperid-1-yl]ethanone] | – | 45% | – | – | – |
| O=C(COc1ccccc1)N1CCC(c2nc(-c3cccs3)no2)CC1 [Compound 45, 2-phenoxy-1-[4-(3-thiophen-2-yl[1,2,4]oxadiazol-5-yl)piperid-1-yl]ethanone] | 2500% | 75% | – | 1500 nM | – |
| O=C(Nc1ccccc1)N1CCC(c2nc(-c3cccs3)no2)CC1 [Compound 48, 4-(3-thiophen-2-yl[1,2,4]oxadiazol-5-yl)piperidine-1-carboxylic acid phenylamide] | – | 56% | 0.86 µg/mL (≈ 2.43 µM) | – | 1140 nM |
| S=C(Nc1ccccc1)N1CCC(c2nc(-c3cccs3)no2)CC1 [Compound 49, 4-(3-thiophen-2-yl[1,2,4]oxadiazol-5-yl)piperidine-1-carbothioic acid phenylamide] | – | 86% | – | 1340 nM | – |
| O=C(NC1CC1)N1CCC(c2nc(-c3cccs3)no2)CC1 [Compound 51, 4-(3-thiophen-2-yl[1,2,4]oxadiazol-5-yl)piperidine-1-carboxylic acid cyclopropylamide] | – | 13% | 272 µg/mL (≈ 853 µM) | – | – |
| S=C(NC1CC1)N1CCC(c2nc(-c3cccs3)no2)CC1 [Compound 52, 4-(3-thiophen-2-yl[1,2,4]oxadiazol-5-yl)piperidine-1-carbothioic acid cyclopropylamide] | – | 61% | – | – | – |
| O=S(=O)(Cc1ccccc1)N1CCC(c2nc(-c3cccs3)no2)CC1 [Compound 53, 1-phenylmethanesulfonyl-4-(3-thiophen-2-yl[1,2,4]oxadiazol-5-yl)piperidine] | – | 34% | – | – | – |
| O=C(c1ccccc1)N1CCC(c2nc(-c3cccs3)no2)CC1 [Compound 54, phenyl[4-(3-thiophen-2-yl[1,2,4]oxadiazol-5-yl)piperid-1-yl]methanone] | – | 5% | 38.7 µg/mL (≈ 114 µM) | – | – |
| O=C(CC1CC1)N1CCC(c2nc(-c3cccc(N(Cc4ccccc4)Cc4ccccc4)c3)no2)CC1 [Compound 57, 2-cyclopropyl-1-{4-[3-(3-dibenzylaminophenyl)[1,2,4]oxadiazol-5-yl]piperid-1-yl}ethanone] | – | 46% | – | – | – |
| O=C(Cc1cccs1)N1CCC(c2nc(-c3ccc(Br)s3)no2)CC1 [Compound 58, 1-{4-[3-(5-bromothiophen-2-yl)[1,2,4]oxadiazol-5-yl]piperid-1-yl}-2-thiophen-2-ylethanone] | – | 34% | – | – | – |
| N#CCC(=O)N1CCC(c2nc(-c3ccc(Br)s3)no2)CC1 [Compound 59, 3-{4-[3-(5-bromothiophen-2-yl)[1,2,4]oxadiazol-5-yl]piperid-1-yl}-3-oxo-propionitrile] | – | 77% | – | 390 nM | – |
